In patent publication US6605589B1, “Cathepsin inhibitors in cancer treatment” (Parker Hughes Institute, priority 2000, dated 2003):

Tests used:
Format in all cases: cell-based, human
ALL-1 (pre-pre B ALL) = assay: In vitro clonogenic assay; settings: for %, inhibition / Mean no, of colonies: 24 hours
Description: (§1) In vitro clonogenic assays were carried out to determine the cytotoxic activity of the cathepsin inhibitor I (CATI-1) (Z-Phe-Gly-NHO-Bz) against cancer cells. The cancer cell lines used in the assay were U373 (glioblastoma), BT-20 (breast cancer), SQ20B (squamous cell carcinoma), RS4;11 (pro-B ALL), ALL-1 (pre-pre-B ALL), KM-3, MOLT-3 (T-ALL), JURKAT (T-ALL), K-562 (CML), HL-60 (AML), DAUDI (NHL), RAMOS (NHL) and RAJI (NHL). Each cell line was treated under several concentrations of CATI-1 for 24 hours, washed with serum free medium and resuspended in clonogenic medium having 10% fetal bovine serum and 0.9% methylcellulose. Resuspended cells were plated in duplicate 35-mm Petri dishes at 10,000 to 20,000 cells per dish and cultured at 37° C. in a humidified 5% CO2 atmosphere for 5 to 7 days.
(§2) Images of colonies in each dish were taken by a digital camera (Princeton Instruments, Inc.) linked to a microscope (Nikon Diaphot 200). Colony numbers were determined using an inverted phase microscope and percent inhibition of colony formation determined using the formula:
(§3) % inhibition=(1−(colony number in test sample/colony number in control sample))×100.

RAMOS (NHL) = assay: In vitro clonogenic assay; settings: for %, inhibition / Mean no, of colonies: 24 hours
Description: as §1, §2, §3

DAUDI (NHL) = assay: In vitro clonogenic assay; settings: CATI-1 10 uM, 24 hours
Description: as §1, §2, §3

KM-3 (pre-B ALL) = assay: In vitro clonogenic assay; settings: 24 hours
Description: as §1, §2, §3

HL-60 (AML) = assay: In vitro clonogenic assay; settings: CATI-1 10 uM, 24 hours
Description: as §1, §2, §3

RS4;11 (pro-B ALL) = assay: In vitro clonogenic assay; settings: for %, inhibition / Mean no, of colonies: 24 hours
Description: as §1, §2, §3

K-562 (CML) = assay: In vitro clonogenic assay; settings: for %, inhibition / Mean no, of colonies: 24 hours
Description: as §1, §2, §3

BT-20 (breast cancer) [1] = assay: In vitro clonogenic assay; settings: 24 hours
Description: as §1, §2, §3

RAJI (NHL) = assay: In vitro clonogenic assay; settings: for %, inhibition / Mean no, of colonies: 24 hours
Description: as §1, §2, §3

U373 (brain tumor) = assay: In vitro clonogenic assay; settings: 24 hours
Description: as §1, §2, §3

MOLT-3 (T-ALL) = assay: In vitro clonogenic assay; settings: for %, inhibition / Mean no, of colonies: 24 hours
Description: as §1, §2, §3

[2] = tested on: all tested cancer cell lines; assay: Cytometric apoptosis detection assays, FIG. 2; settings: FIG. 2 (SQ-20B, HeLa, PC-3, BT-20)
Description: The percentages indicate the fraction of cells at an early stage of apoptosis (lower right quadrant), as measured by single MC540 fluorescence, and the fraction of cells at an advanced stage of apoptosis (upper right quadrant).
Quantitative flow cytometric apoptosis detection assays were performed on BT-20 (breast cancer), PC-3 (prostate cancer), U373 (glioblastoma), SQ20B (squamous cell carcinoma), HeLa (cervix cancer), and DU145 (prostate cancer). Just prior to the assay, one mg/ml stock solutions of MC540 (Sigma, St. Louis, Mo.) and PI (Sigma, St. Louis, Mo.) were filtered through a 0.22 μm filter and stored at 4° C. in the dark. CATI-1 treated cell lines was harvested, and 1×10^6 cells suspended and stained with 5 μg/ml MC540 and 10 μg/ml propidium iodide (PI) (Uckun et al. (1996) Science, 273: 1096-1100) at 4° C. in the dark for 24 hours. Stained cells were analyzed with a FACStar Plus flow cytometer (Becton Dickinson, San Jose, Calif.) using the 488-nm excitation from an argon laser. […] In each experiment approximately 10,000 cells were analyzed by FACS and the percentage of cells at early (MC540 fluorescence only) and advanced (dual MC540 plus PI fluorescence) stages of apoptosis obtained.

DU145 (prostate cancer) = assay: Quantitative flow cytometric apoptosis detection assay (MC540/PI); settings: 0 to 100 μM, FIGS. 1-3
Description: (§4) Quantitative flow cytometric apoptosis detection assays were performed on BT-20 (breast cancer), PC-3 (prostate cancer), U373 (glioblastoma), SQ20B (squamous cell carcinoma), HeLa (cervix cancer), and DU145 (prostate cancer). Just prior to the assay, one mg/ml stock solutions of MC540 (Sigma, St. Louis, Mo.) and PI (Sigma, St. Louis, Mo.) were filtered through a 0.22 μm filter and stored at 4° C. in the dark. CATI-1 treated cell lines was harvested, and 1×10^6 cells suspended and stained with 5 μg/ml MC540 and 10 μg/ml propidium iodide (PI) (Uckun et al. (1996) Science, 273: 1096-1100) at 4° C. in the dark for 24 hours. Stained cells were analyzed with a FACStar Plus flow cytometer (Becton Dickinson, San Jose, Calif.) using the 488-nm excitation from an argon laser. MC540 and PI emissions were split with a 600-nm short pass diachronic mirror; a 575-nm band pass filter was placed in front of one photomultiplier tube to measure MC540 emission, and 635-nm band pass filter was used for PI emission. In each experiment approximately 10,000 cells were analyzed by FACS and the percentage of cells at early (MC540 fluorescence only) and advanced (dual MC540 plus PI fluorescence) stages of apoptosis obtained.

PC-3 (prostate cancer) = assay: as above; settings: 0 to 100 μM, FIGS. 1-3
Description: as §4

BT-20 (breast cancer) [3] = assay: as above; settings: 0 to 100 μM, FIGS. 1-3
Description: as §4

[4] = tested on: SQ20B (squamous cell carcinoma); assay: as above; settings: 0 to 100 μM, FIGS. 1-3
Description: as §4

U373 (glioblastoma) = assay: as above; settings: 0 to 100 μM, FIGS. 1-3
Description: as §4

HeLa (cervix cancer) = assay: as above; settings: 0 to 100 μM, FIGS. 1-3
Description: as §4

[5] = read-out: IC50 (colony formation)

SMILES: O=C(CNC(=O)[C@H](Cc1ccccc1)NC(=O)OCc1ccccc1)NOC(=O)c1ccccc1 [CATI-1, Z-Phe-Gly-NHO-Bz]
- %, inhibition (ALL-1 (pre-pre B ALL); CATI-1 10 uM): 80.4%
- Mean no, of colonies (ALL-1 (pre-pre B ALL); CATI-1 10 uM): 338 (348, 328)
- %, inhibition (ALL-1 (pre-pre B ALL); CATI-1 20 uM): 99.6%
- Mean no, of colonies (ALL-1 (pre-pre B ALL); CATI-1 20 uM): 7 (6, 8)
- %, inhibition (ALL-1 (pre-pre B ALL); CATI-1 35 uM): 100%
- Mean no, of colonies (ALL-1 (pre-pre B ALL); CATI-1 35 uM): 0 (0, 0)
- IC50 (ALL-1 (pre-pre B ALL); [5]): 6.2 µM
- %, inhibition (RAMOS (NHL); CATI-1 10 uM): 47.1%
- Mean no, of colonies (RAMOS (NHL); CATI-1 10 uM): 1442 (1344, 1540)
- %, inhibition (RAMOS (NHL); CATI-1 20 uM): 78.2%
- Mean no, of colonies (RAMOS (NHL); CATI-1 20 uM): 594 (660, 528)
- %, inhibition (RAMOS (NHL); CATI-1 35 uM): 100%
- Mean no, of colonies (RAMOS (NHL); CATI-1 35 uM): 0 (0, 0)
- IC50 (RAMOS (NHL); [5]): 10.1 µM
- %, inhibition (DAUDI (NHL)): 100%
- Mean no, of colonies (DAUDI (NHL)): 0 (0, 0)
- %, inhibition (KM-3 (pre-B ALL); CATI-1 10 uM): 79.2%
- Mean no, of colonies (KM-3 (pre-B ALL); CATI-1 10 uM): 578 (520, 636)
- %, inhibition (KM-3 (pre-B ALL); CATI-1 20 uM): 100%
- Mean no, of colonies (KM-3 (pre-B ALL); CATI-1 20 uM): 0 (0, 0)
- %, inhibition (HL-60 (AML)): 100%
- Mean no, of colonies (HL-60 (AML)): 0 (0, 0)
- %, inhibition (RS4;11 (pro-B ALL); CATI-1 10 uM): 10.6%
- Mean no, of colonies (RS4;11 (pro-B ALL); CATI-1 10 uM): 2676 (2160, 3192)
- %, inhibition (RS4;11 (pro-B ALL); CATI-1 20 uM): 96.8%
- Mean no, of colonies (RS4;11 (pro-B ALL); CATI-1 20 uM): 96 (116, 76)
- %, inhibition (RS4;11 (pro-B ALL); CATI-1 35 uM): 100%
- Mean no, of colonies (RS4;11 (pro-B ALL); CATI-1 35 uM): 0 (0, 0)
- IC50 (RS4;11 (pro-B ALL); [5]): 14.6 µM
- %, inhibition (K-562 (CML); CATI-1 10 uM): 19.0%
- Mean no, of colonies (K-562 (CML); CATI-1 10 uM): 3806 (3980, 3632)
- %, inhibition (K-562 (CML); CATI-1 20 uM): 76.9%
- Mean no, of colonies (K-562 (CML); CATI-1 20 uM): 1086 (1196, 976)
- %, inhibition (K-562 (CML); CATI-1 35 uM): 99.8%
- Mean no, of colonies (K-562 (CML); CATI-1 35 uM): 10 (12, 8)
- IC50 (K-562 (CML); [5]): 15.4 µM
- %, inhibition (BT-20 (breast cancer) [1]; CATI-1 50 uM): 95%
- Mean no, of colonies (BT-20 (breast cancer) [1]; CATI-1 50 uM): 177 (154, 200)
- %, inhibition (BT-20 (breast cancer) [1]; CATI-1 100 uM): 100%
- Mean no, of colonies (BT-20 (breast cancer) [1]; CATI-1 100 uM): 0
- %, inhibition (RAJI (NHL); CATI-1 10 uM): 86.5%
- Mean no, of colonies (RAJI (NHL); CATI-1 10 uM): 168 (124, 212)
- %, inhibition (RAJI (NHL); CATI-1 20 uM): 97.4%
- Mean no, of colonies (RAJI (NHL); CATI-1 20 uM): 32 (40, 24)
- %, inhibition (RAJI (NHL); CATI-1 35 uM): 100%
- Mean no, of colonies (RAJI (NHL); CATI-1 35 uM): 0 (0, 0)
- IC50 (RAJI (NHL); [5]): 5.8 µM
- %, inhibition (U373 (brain tumor); CATI-1 30 uM): 97%
- Mean no, of colonies (U373 (brain tumor); CATI-1 30 uM): 76 (84, 67)
- %, inhibition (U373 (brain tumor); CATI-1 50 uM): 100%
- Mean no, of colonies (U373 (brain tumor); CATI-1 50 uM): 0
- %, inhibition (MOLT-3 (T-ALL); CATI-1 10 uM): 90.8%
- Mean no, of colonies (MOLT-3 (T-ALL); CATI-1 10 uM): 194 (124, 264)
- %, inhibition (MOLT-3 (T-ALL); CATI-1 20 uM): 99.1%
- Mean no, of colonies (MOLT-3 (T-ALL); CATI-1 20 uM): 18 (16, 20)
- %, inhibition (MOLT-3 (T-ALL); CATI-1 35 uM): 100%
- Mean no, of colonies (MOLT-3 (T-ALL); CATI-1 35 uM): 0 (0, 0)
- IC50 (MOLT-3 (T-ALL); [5]): 5.5 µM
- induction of apoptosis [2]: induced apoptosis
- induction of apoptosis (DU145 (prostate cancer)): induces apoptosis
- induction of apoptosis (PC-3 (prostate cancer)): induces apoptosis
- induction of apoptosis (BT-20 (breast cancer) [3]): induces apoptosis
- induction of apoptosis [4]: induces apoptosis
- induction of apoptosis (U373 (glioblastoma)): induces apoptosis
- induction of apoptosis (HeLa (cervix cancer)): induces apoptosis
